Test results as given in patent publication US20250214969A1, “PROTEIN DEGRADERS AND USES THEREOF” (Kymera Therapeutics, Inc., priority 2022, published 2025).
pIC50: −log10 of the molar value.

Key:
[1] = molecular target: T1, truncated His-MBP-Tev-KLHDC2 (residues 1-363) (Homo sapiens, UniProt Q9Y2U9); test: KLHDC2 HTRF binding assay; settings: 1 nM KLHDC2 (residues 1-363), fluorescein-labeled diglycine peptide probe
T1 construct: truncated His -MBP-Tev-KLHDC2 (residues 1-363) purified from E. coli; made in house; host or cells: E. coli
T1 sequence (Q9Y2U9 1-363): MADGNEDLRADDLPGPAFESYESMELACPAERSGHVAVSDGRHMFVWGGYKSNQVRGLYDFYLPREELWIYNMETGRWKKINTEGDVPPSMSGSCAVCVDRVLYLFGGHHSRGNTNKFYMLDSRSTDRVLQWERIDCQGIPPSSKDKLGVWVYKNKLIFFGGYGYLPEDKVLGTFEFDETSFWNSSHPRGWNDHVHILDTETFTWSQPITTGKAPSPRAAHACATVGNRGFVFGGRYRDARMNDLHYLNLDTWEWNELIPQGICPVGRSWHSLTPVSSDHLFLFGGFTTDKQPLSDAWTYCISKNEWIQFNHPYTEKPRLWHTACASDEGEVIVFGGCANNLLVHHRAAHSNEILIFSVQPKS
Procedure: HTRF binding assays were performed using 1 nM truncated His -MBP-Tev-KLHDC2 (residues 1-363) purified from E. coli, 0.2 nM terbium-anti-His antibody (CisBio), 1 nM fluorescein-labeled diglycine peptide probe, and test compounds in assay buffer consisting of 50 mM HEPES-Na pH 7.5, 100 mM NaCl, 2 mM DTT, 0.005% Tween-20 with a final volume of 20 uL. Compound stocks were dissolved at 10 mM in 100% DMSO and 11 point titration with 3 fold serial dilution was performed in white, opaque 384 well microplates. Reaction plates were incubated at room temperature for 30 minutes. Plates were centrifuged at low rpm for 5 mins, and the ratio of fluorescence intensities were measured at emission wavelengths for fluorescein acceptor (520 nm) and terbium donor (495 nm) on Envision Plate reader. % Inhibition was calculated from the 520/495 ratio generated by the no protein controls for 100% inhibition and DMSO only reactions for 0l % inhibition.

[2] = molecular target: T1, truncated His-MBP-Tev-KLHDC2 (residues 1-363); test: KLHDC2 FP competition binding assay; settings: 15 nM KLHDC2 (residues 1-363), 10 nM fluorescein-labeled diglycine peptide probe, read-out: KLHDC2 binding Human FP: average external IC50
Procedure: FP competition binding assays were performed using 15 nM truncated His -MBP-Tev-KLHDC2 (residues 1-363) purified from E. coli, 10 nM fluorescein-labeled diglycine peptide probe, and test compounds in assay buffer consisting of 50 mM HEPES-Na pH 7.5, 100 mM NaCl, 2 mM DTT, 0.005% Tween-20 with a final volume of 20 uL. Compound stocks were dissolved at 10 mM in 100% DMSO and 11 point titration with 3 fold serial dilution was performed in black, flat bottom 384 well microplates. Plates were incubated at room temperature for 30 minutes. Plates were centrifuged at 1000 rpm for 1 min, data were collected using an Envision plate reader in fluorescence polarization mode with excitation filter FITC FP at 480 nm, emission filter FITC FP P-pol at 535 nm and FITC FP S-pol at 535 nm. FP signal was calculated using the equation (mP=1000*(S-G*P)/(S+G*P), G-factor=1.0) and % Inhibition was calculated using no-protein controls for 100% inhibition and DMSO only reactions for 0l % inhibition (yes).

Structure (SMILES)	pIC50 [1]	pIC50 [2]
O=C(O)Cn1cc(NC(=O)COc2ccccc2Cl)ccc1=O [I-282]	< 5.30	< 5.30
O=C(O)Cn1cc(NC(=O)N2CCC(c3ccccc3)CC2)ccc1=O [I-140]	< 5.30	< 5.30
O=C(O)Cn1cc(NC(=O)[C@H]2CC[C@H](NC(=O)C3CCCC3)CC2)ccc1=O [I-183]	< 5.30	< 5.30
COc1cc(-c2ccsc2)ccc1C(=O)Nc1ccc(=O)n(CC(=O)O)c1 [I-143]	5.30 to 6.30	5.30 to 6.30
COc1cncc(-c2cccc(C(=O)Nc3ccc(=O)n(CC(=O)O)c3)c2)c1 [I-47]	> 7.30	5.30 to 6.30
O=C(O)Cn1cc(NC(=O)c2ccc3cc(Cl)ccc3c2)ccc1=O [I-177]	5.30 to 6.30	< 5.30
O=C(O)Cn1cc(C(F)(F)F)ccc1=O [I-429]	< 5.30	< 5.30
O=C(O)Cn1c(=O)oc2cc([N+](=O)[O-])ccc21 [I-214]	< 5.30	< 5.30
O=C(O)C1CC(=O)N(Cc2cccnc2)C1 (stereo not shown) [I-220]	< 5.30	< 5.30
CNC(=O)c1cccc(-c2cccc(C(=O)Nc3ccc(=O)n(CC(=O)O)c3)c2)c1 [I-195]	< 5.30	< 5.30
COc1cc(-c2ccccn2)ccc1C(=O)Nc1ccc(=O)n(CC(=O)O)c1 [I-149]	5.30 to 6.30	5.30 to 6.30
O=C(O)Cn1cc(N2C[C@@]3(CCCN(c4cccnc4)C3)CC2=O)ccc1=O [I-17]	< 5.30	< 5.30
O=C(Nc1ccc(=O)n([C@H](F)C(=O)O)c1)c1cccc(-c2cccnc2)c1 [I-52]	< 5.30	< 5.30
COc1cc(-c2ccc(F)cc2)ccc1C(=O)Nc1ccc(=O)n(CC(=O)O)c1 [I-155]	6.30 to 7.30	5.30 to 6.30
CN(CC1(C(=O)Nc2ccc(=O)n(CC(=O)O)c2)CC1)c1cccnc1 [I-43]	< 5.30	< 5.30
O=C(O)Cc1cc(NC(=O)[C@H]2CCCN(c3cncc4ccccc34)C2)ccc1Cl [I-7]	> 7.30	6.30 to 7.30
NCCCCCCc1cc(C(=O)Nc2ccc(=O)n(CC(=O)O)c2)cc(-c2cccnc2)c1 [I-166]	5.30 to 6.30	5.30 to 6.30
CCOC(=O)Cn1cc(NC(=O)c2cccc(-c3cnccc3CCCCCCN)c2)ccc1=O [I-152]	< 5.30	< 5.30

Structure (SMILES)	pIC50 [1]	pIC50 [2]
C[C@]1(C(=O)Nc2ccc(=O)n(CC(=O)O)c2)CCCN(c2cccnc2)C1 [I-75]	5.30 to 6.30	5.30 to 6.30
O=C(O)Cn1cc(NC(=O)c2cc(-c3cccnc3)c3ccccc3c2)ccc1=O [I-88]	5.30 to 6.30	5.30 to 6.30
O=C(O)Cn1cc(NC(=O)COc2cccc(C(F)(F)F)c2)ccc1=O [I-252]	< 5.30	< 5.30
O=C(O)Cn1cc(NC(=O)COc2ccc(Oc3ccccc3)cc2)ccc1=O [I-244]	< 5.30	< 5.30
O=C(O)Cn1cc(NC(=O)[C@H]2CCCN(c3cncc4ccccc34)C2)ccc1=O [I-41]	> 7.30	> 7.30
CN(CC(C)(C)C(=O)Nc1ccc(=O)n(CC(=O)O)c1)c1cccnc1 [I-36]	< 5.30	< 5.30
O=C(O)Cn1cc(NC(=O)Cc2ccccc2)ccc1=O [I-377]	< 5.30	< 5.30
O=C(O)Cn1cc(-c2cccc(O)c2)ccc1=O [I-368]	< 5.30	< 5.30
O=C(O)Cc1cc(NC(=O)[C@H]2CCCN(c3cccnc3)C2)ccc1F [I-33]	6.30 to 7.30	5.30 to 6.30
CCc1ccc(C(=O)Nc2ccc(=O)n(CC(=O)O)c2)cc1-c1cccnc1 [I-181]	5.30 to 6.30	< 5.30
O=C(Nc1ccc(=O)n([C@@H](F)C(=O)O)c1)c1cccc(-c2cccnc2)c1 [I-51]	5.30 to 6.30	< 5.30
O=C(Nc1ccc(=O)n(Cc2nn[nH]n2)c1)c1cccc(-c2cccnc2)c1 [I-79]	< 5.30	< 5.30
COc1ccc(-c2ccc(=O)n(CC(=O)O)c2)cn1 [I-327]	< 5.30	< 5.30
COc1cccc(OCC(=O)Nc2ccc(=O)n(CC(=O)O)c2)c1 [I-261]	< 5.30	< 5.30
CN(C(=O)Cc1ccc(=O)n(CC(=O)O)c1)c1ccccc1 [I-272]	< 5.30	< 5.30
N#Cc1cc(=O)n(CC(=O)O)cc1NC(=O)c1cccc(-c2cccnc2)c1 [I-25]	6.30 to 7.30	5.30 to 6.30
CCc1ccc(C(=O)CCC(=O)Nc2ccc(=O)n(CC(=O)O)c2)cc1 [I-253]	< 5.30	< 5.30
